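Grown in 96-well plates, cells were treated for 48 hours with each compound at five concentrations. Insufficient inhibition: endpoint recorded as highest concentration tested. GI50 is the concentration that inhibits growth by half. TGI marks complete inhibition of growth.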
Tests used:
Assay in all cases: DTP human tumour cell line panel, 48 h
[1] = tested on: CAKI-1 renal
[2] = tested on: NCI-H522 lung
[3] = tested on: OVCAR-8 ovarian
[4] = tested on: SF-295 CNS
[5] = tested on: SF-539 CNS
[6] = tested on: SK-OV-3 ovarian
[7] = tested on: BT-549 breast
[8] = tested on: NCI/ADR-RES ovarian
[9] = tested on: T-47D breast
[10] = tested on: LOX IMVI melanoma

Compound	TGI [1]	TGI [2]	TGI [3]	TGI [4]	TGI [5]	TGI [6]	GI50 [7]	TGI [7]	GI50 [1]	GI50 [8]	TGI [8]	GI50 [3]	GI50 [4]	GI50 [5]	GI50 [6]	GI50 [9]	TGI [9]	TGI [10]	GI50 [10]	GI50 [2]
O=C1OC(c2ccc(Cl)c3ccccc23)c2ccccc21 (stereo not given)	> 100 µM	> 100 µM	> 100 µM	> 100 µM	> 100 µM	> 100 µM														
O=c1c2ccccc2c(=O)c2c1sc1c(=O)c3ccc(O)cc3c(=O)c12	3.26 µM		8.31 µM	0.361 µM	0.661 µM	2.91 µM	0.163 µM	0.33 µM	1.29 µM	1.45 µM	6.87 µM	1.78 µM	0.178 µM	0.245 µM	1.38 µM	2.04 µM	6.3 µM			
COc1cc(/C=C2/C(=O)N(C(=O)c3ccccc3O)N=C2C)ccc1O	> 25.5 µM		> 100 µM	> 100 µM		> 86.5 µM					> 100 µM						> 100 µM	> 70.6 µM		
C/C(=N\O)[C@H]1CC[C@@]2(C)[C@@H]3CC[C@H]4C(C)(C)/C(=N/O)CC[C@@]45CC35CC[C@]12C (stereo not given in full)		> 16.7 µM	9.39 µM		6.72 µM	> 16.7 µM	2.65 µM	9.59 µM		2.76 µM	7.93 µM	3.64 µM		3.14 µM	6.18 µM			4.1 µM	0.759 µM	> 16.7 µM
Cc1ccc(N2C(=O)/C(=C3\Sc4c(nc(C)n(C)c4=O)N3c3ccccc3)SC2=S)cc1	> 100 µM	> 100 µM	91.3 µM	> 100 µM	33.7 µM	> 100 µM												> 100 µM		
CC(C)(C)c1cc(C(=O)O)c(C(c2ccccc2)c2ccccc2C(=O)O)c(C(=O)O)c1 (stereo not given)	> 100 µM	5.16 µM	> 100 µM	> 100 µM	> 100 µM	36.9 µM												> 100 µM		
CC(=O)Oc1ccc2c(c1)O/C(=C\c1ccc(O)cc1)C2=O	> 100 µM	> 100 µM	> 100 µM	> 100 µM	> 100 µM	> 100 µM		> 100 µM			> 100 µM						> 100 µM			
Cc1nc2cc(Nc3nc(Nc4ccc(F)cc4)nc(-c4ccc(Cl)cc4)n3)ccc2n1Cc1ccccc1		68.2 µM	22 µM	58 µM	28.7 µM	> 100 µM	6.14 µM	39.8 µM		5.51 µM	33.8 µM	3.93 µM	4.81 µM	11.3 µM	10.9 µM	2.44 µM	24.8 µM	> 100 µM	12.6 µM	10.8 µM
C=C1c2ccccc2N(S(=O)(=O)c2ccc(C)cc2)C12CCCCC2		> 100 µM	> 100 µM	> 100 µM	> 100 µM	> 100 µM												> 100 µM		
CCOC(=O)c1cc(C(=O)O)c(=O)n2c1[nH]c1ccccc12	> 100 µM	> 100 µM	> 100 µM	> 100 µM	> 100 µM	> 100 µM														
O=c1ncccn1C1OC(CO)C(O)C1F (stereo not given)	> 100 µM	> 100 µM	> 100 µM	> 100 µM	> 100 µM	> 100 µM								> 100 µM				> 100 µM		
CC12O[Te]34OC1(C)C(C)(O3)C2(C)O4	22.6 µM	23.6 µM	24.4 µM	18.3 µM	28.2 µM	36.3 µM												16.4 µM		
O=C1[C@H]2ON(c3ccccc3)C(c3cccc([N+](=O)[O-])c3)[C@H]2C(=O)N1c1ccc(Cc2ccc(N3C(=O)[C@@H]4ON(c5ccccc5)C(c5cccc([N+](=O)[O-])c5)[C@@H]4C3=O)cc2)cc1 (stereo not given in full)	> 100 µM	> 100 µM	> 100 µM	> 100 µM	> 100 µM	> 100 µM												> 100 µM		
CC1(C)Oc2ccccc2N2O[C@@H]3C(=O)N(c4ccccc4)C(=O)[C@@H]3C21c1ccccc1 (stereo not given in full)	60.8 µM	93.2 µM		32.2 µM	31.7 µM	41 µM														
CC(=O)Nc1ccc2c(c1)CN1C(=O)c3ccccc3C1=N2	> 100 µM		> 100 µM	> 100 µM	> 100 µM	> 100 µM			> 100 µM	> 100 µM	> 100 µM	> 100 µM	> 100 µM	> 100 µM	> 100 µM	> 100 µM	> 100 µM	> 100 µM	> 100 µM	
OCCN(CCO)c1ncnc2c1sc(=S)n2-c1ccccc1	> 100 µM	> 100 µM	> 100 µM	> 100 µM	> 100 µM	> 100 µM												> 100 µM		
C1=CC=C2NCCSCCNC3=CC=CC=CC3=NCCSCCN=C2C=C1	> 100 µM	> 100 µM	> 100 µM	> 100 µM		> 100 µM												> 100 µM		
COC(=O)C1=C(C(=O)OC)N(C(C)C)[C@H]2C(C(=O)OC)=C(C(=O)OC)N(C(C)C)[C@@H]12	> 100 µM	> 100 µM	> 100 µM	> 100 µM	> 100 µM	> 100 µM												> 100 µM		
O=C1Cc2ccccc2CCc2ccccc21	> 100 µM	> 100 µM	> 100 µM	> 100 µM	> 100 µM	> 100 µM												> 100 µM		
O=c1/c(=C/c2ccc3c(c2)OCO3)sc2nnc(Cc3ccccc3)n12	> 100 µM	> 100 µM	> 100 µM	> 100 µM	> 100 µM	> 100 µM												> 100 µM		
CCOc1ccccc1NC(=O)CCC(=O)NN	> 100 µM	> 100 µM	> 100 µM	> 100 µM	> 100 µM	> 100 µM												> 100 µM		
O=C(NOC(=O)c1ccc([N+](=O)[O-])cc1)c1ccc(Cl)cc1	> 100 µM	82.2 µM	> 100 µM	> 100 µM	> 100 µM	> 100 µM														
O=C1Nc2ccc(Br)cc2C1=Nc1ccc(Cl)cc1	> 100 µM	24.6 µM	26.7 µM	89.2 µM	19.4 µM	> 100 µM					62.3 µM						> 100 µM	31.8 µM		
